# In ChEMBL document CHEMBL4765344, “Expanding the anticancer potential of 1,2,3-triazoles via simultaneously targeting Cyclooxygenase-2, 15-lipoxygenase and tumor-associated carbonic anhydrases” (Eur J Med Chem, 2020):
# What was measured:
# WI-38 = test: Cytotoxicity against human WI-38 cells assessed as reduction in cell viability after 72 hrs by SRB assay; format: cell-based; details: WI-38, 72 h
# A549 [1] = test: Antiproliferative activity against human A549 cells assessed as inhibition of cell growth at 100 microM measured after 72 hrs by SRB assay; format: functional
# HepG2 [2] = test: Antiproliferative activity against human HepG2 cells assessed as inhibition of cell growth at 100 microM measured after 72 hrs by SRB assay; format: functional
# MCF7 [3] = test: Antiproliferative activity against human MCF-7 cells assessed as inhibition of cell growth at 100 microM measured after 72 hrs by SRB assay; format: functional
# A549 [4] = test: Antiproliferative activity against human A549 cells assessed as cell growth inhibition measured after 72 hrs by SRB assay; format: functional, cell-based; details: A549, 72 h
# HepG2 [5] = test: Antiproliferative activity against human HepG2 cells assessed as cell growth inhibition measured after 72 hrs by SRB assay; format: functional, cell-based; details: HepG2, 72 h
# MCF7 [6] = test: Antiproliferative activity against human MCF-7 cells assessed as cell growth inhibition measured after 72 hrs by SRB assay; format: functional, cell-based; details: MCF7, 72 h
# MCF7 [7] = test: Induction of apoptosis in human MCF-7 cells assessed as early apoptotic cells at IC50 measured after 24 hrs by Annexin V-FITC/propidium iodide staining based flow cytometry (reference value: 0.4%); format: functional
# MCF7 [8] = test: Induction of apoptosis in human MCF-7 cells assessed as late apoptotic cells at IC50 measured after 24 hrs by Annexin V-FITC/propidium iodide staining based flow cytometry (reference value: […]); format: functional
# MCF7 [9] = test: Induction of apoptosis in human MCF-7 cells assessed as necrotic cells at IC50 measured after 24 hrs by Annexin V-FITC/propidium iodide staining based flow cytometry (reference value: 1.27%); format: functional
# A549 [10] = test: Induction of apoptosis in human A549 cells assessed as early apoptotic cells at IC50 measured after 24 hrs by annexin V-FITC staining based flow cytometry (reference value: 0.63%); format: functional
# A549 [11] = test: Induction of apoptosis in human A549 cells assessed as late apoptotic cells at IC50 measured after 24 hrs by annexin V-FITC staining based flow cytometry (reference value: […]); format: functional
# A549 [12] = test: Induction of apoptosis in human A549 cells assessed as necrotic cells at IC50 measured after 24 hrs by annexin V-FITC staining based flow cytometry (reference value: 1.01%); format: functional
# MCF7 [13] = test: Induction of apoptosis in human MCF7 cells assessed as caspase-9 expression at IC50 by ELISA (reference value: 1.77 +/- 0.1 ng/ml); format: functional
# MCF7 [14] = test: Induction of apoptosis in human MCF7 cells assessed as fold change in caspase-9 expression at IC50 by ELISA relative to control; format: functional
# MCF7 [15] = test: Induction of apoptosis in human MCF7 cells assessed as Bax expression at IC50 by ELISA (reference value: 45.46 +/- 3.6 pg/ml); format: functional
# MCF7 [16] = test: Induction of apoptosis in human MCF7 cells assessed as fold change in Bax expression at IC50 by ELISA relative to control; format: functional
# MCF7 [17] = test: Induction of apoptosis in human MCF7 cells assessed as Bcl-2 expression at IC50 by ELISA (reference value: 7.49 +/- 0.1 ng/ml); format: functional
# MCF7 [18] = test: Induction of apoptosis in human MCF7 cells assessed as fold change in Bcl-2 expression at IC50 by ELISA relative to control; format: functional
# A549 [19] = test: Induction of apoptosis in human A549 cells assessed as caspase-9 expression at IC50 by ELISA (reference value: […] +/- […] ng/ml); format: functional
# A549 [20] = test: Induction of apoptosis in human A549 cells assessed as fold change in caspase-9 expression at IC50 by ELISA relative to control; format: functional
# A549 [21] = test: Induction of apoptosis in human A549 cells assessed as Bax expression at IC50 by ELISA (reference value: 42.16 +/-6.2 pg/ml); format: functional
# A549 [22] = test: Induction of apoptosis in human A549 cells assessed as fold change in Bax expression at IC50 by ELISA relative to control; format: functional
# A549 [23] = test: Induction of apoptosis in human A549 cells assessed as Bcl2 expression at IC50 by ELISA (reference value: 9.04 +/-0.1 ng/ml); format: functional
# A549 [24] = test: Induction of apoptosis in human A549 cells assessed as fold change in Bcl2 expression at IC50 by ELISA relative to control; format: functional
# [25] = Toxicity in ip dosed BALB/c mouse measured for 3 days; format: organism-based; details: in vivo, time 3 day
# MCF7 [26] = test: Antitumor activity against human MCF7 cells xenografted in BALB/c mouse assessed as reduction in tumor volume at 23 mg/kg, ip administered thrice a week for 28 days by vernier caliper analysis; format: functional; details: time 28 day
# MCF7 [27] = test: Induction of cell cycle arrest in human MCF7 cells assessed as accumulation at pre-G1 phase at IC50 measured after 24 hrs by propidium iodide/RNase staining based flow cytometry (reference value: 1.96%); format: functional
# MCF7 [28] = test: Induction of cell cycle arrest in human MCF7 cells assessed as accumulation at G0/G1 phase at IC50 measured after 24 hrs by propidium iodide/RNase staining based flow cytometry (reference value: 51.72%); format: functional
# MCF7 [29] = test: Induction of cell cycle arrest in human MCF7 cells assessed as accumulation at G2/M phase at IC50 measured after 24 hrs by propidium iodide/RNase staining based flow cytometry (reference value: 18.4%); format: functional
# MCF7 [30] = test: Induction of cell cycle arrest in human MCF7 cells assessed as accumulation at S phase at IC50 measured after 24 hrs by propidium iodide/RNase staining based flow cytometry (reference value: 29.88%); format: functional
# MCF7 [31] = test: Induction of cell cycle arrest in human MCF7 cells assessed as reduction in accumulation at G0/G1 phase at IC50 measured after 24 hrs by propidium iodide/RNase staining based flow cytometry relative to control; format: functional
# MCF7 [32] = test: Induction of cell cycle arrest in human MCF7 cells assessed as increase in accumulation at G2/M phase at IC50 measured after 24 hrs by propidium iodide/RNase staining based flow cytometry relative to control; format: functional
# MCF7 [33] = test: Induction of cell cycle arrest in human MCF7 cells assessed as increase in accumulation at pre-G1 phase at IC50 measured after 24 hrs by propidium iodide/RNase staining based flow cytometry relative to control; format: functional
# A549 [34] = test: Induction of cell cycle arrest in human A549 cells assessed as accumulation at pre-G1 phase at IC50 measured after 24 hrs by propidium iodide/RNase staining based flow cytometry (reference value: 1.93%); format: functional
# A549 [35] = test: Induction of cell cycle arrest in human A549 cells assessed as accumulation at G0/G1 phase at IC50 measured after 24 hrs by propidium iodide/RNase staining based flow cytometry (reference value: 58.26%); format: functional
# A549 [36] = test: Induction of cell cycle arrest in human A549 cells assessed as accumulation at G2/M phase at IC50 measured after 24 hrs by propidium iodide/RNase staining based flow cytometry (reference value: 9.86%); format: functional
# A549 [37] = test: Induction of cell cycle arrest in human A549 cells assessed as accumulation at S phase at IC50 measured after 24 hrs by propidium iodide/RNase staining based flow cytometry (reference value: 31.88%); format: functional
# MCF7 [38] = test: Induction of apoptosis in human MCF-7 cells assessed as total apoptotic cells at IC50 measured after 24 hrs by Annexin V-FITC/propidium iodide staining based flow cytometry (reference value: 0.69%); format: functional
# A549 [39] = test: Induction of apoptosis in human A549 cells assessed as total apoptotic cells at IC50 measured after 24 hrs by Annexin V-FITC/propidium iodide staining based flow cytometry (reference value: 0.92%); format: functional
# [40] = Toxicity in BALB/c mouse xenografted with human MCF7 cells assessed as body weight at 23 mg/kg, ip administered thrice a week for 28 days measured on day 28 (reference value: 31.3 gms); format: organism-based; details: in vivo, 672 h, time 28 day
compound,measurement,setting,value
O=c1[nH]cc(F)c(=O)[nH]1 [FLUOROURACIL],IC50,WI-38,78500 nM
same,inhibition at 100 µM,A549 [1],89.3%
same,inhibition at 100 µM,HepG2 [2],80.7%
same,inhibition at 100 µM,MCF7 [3],90.7%
same,IC50,A549 [4],690 nM
same,IC50,HepG2 [5],520 nM
same,IC50,MCF7 [6],590 nM
same,Activity,MCF7 [7],7.26%
same,Activity,MCF7 [8],17.71%
same,Activity,MCF7 [9],2.55%
same,Activity,A549 [10],4.29%
same,Activity,A549 [11],20.68%
same,Activity,A549 [12],3.11%
same,Activity,MCF7 [13],20.87 ng/mL
same,fold change (FC),MCF7 [14],11.8
same,Activity,MCF7 [15],289.9 pg/mL
same,fold change (FC),MCF7 [16],6.37
same,Activity,MCF7 [17],2.23 ng/mL
same,fold change (FC),MCF7 [18],0.3
same,Activity,A549 [19],13.98 ng/mL
same,fold change (FC),A549 [20],11.63
same,Activity,A549 [21],376.9 pg/mL
same,fold change (FC),A549 [22],8.93
same,Activity,A549 [23],6.21 ng/mL
same,fold change (FC),A549 [24],0.68
same,LD50 at 72 h,[25],57.2 mg/kg
same,Activity,MCF7 [26],0.41 cm3
same,Activity,MCF7 [27],27.52%
same,Activity,MCF7 [28],34.09%
same,Activity,MCF7 [29],42.07%
same,Activity,MCF7 [30],23.84%
same,fold change (FC),MCF7 [31],1.5
same,fold change (FC),MCF7 [32],2.3
same,fold change (FC),MCF7 [33],14
same,Activity,A549 [34],28.08%
same,Activity,A549 [35],36.47%
same,Activity,A549 [36],37.82%
same,Activity,A549 [37],25.71%
same,Activity,MCF7 [38],24.97%
same,Activity,A549 [39],24.97%
same,Activity,[40],24.5 g
